Reference: patent publication US20210386367A1, “DEVICES AND SYSTEMS FOR GASTROINTESTINAL MICROBIOME DETECTION AND MANIPULATION” (Progenity, Inc., priority 2018, published 2021)
Values after ≈ are worked out from the molar mass of the structure shown. Read-outs that look alike come from different tables or passages of the source.

What was measured:
Bacteroides non fragilis = test: Agar dilution MIC, 29 clinical isolates; type: cell-based, Bacteroides spp.
[1] = system: Bacteroides spp. (B. fragilis ATCC 25285, B. vulgatus, B. ovatus MMX 3503); test: Agar dilution MIC (spontaneous mutation study; strain in conditions); type: cell-based
S. agalactiae = test: Spontaneous mutation frequency and mutation prevention concentration (MPC); type: cell-based; conditions: S. agalactiae ATCC 13813
Source text: (§1) As used herein, “spontaneous mutation frequency” refers to the rate at which mutations arise in a bacterium that can lead to resistance to develop to an antimicrobial agent. “Mutation prevention concentration” or “MPC” refers to the lowest concentration of antimicrobial agent above which the selective proliferation of resistant mutants is expected to occur only rarely.

Escherichia coli = test: as above; type: cell-based
Source text: as §1

B. vulgatus = test: as above; type: cell-based; conditions: B. vulgatus ATCC 8482
Source text: as §1

S. pneumonia = test: as above; type: cell-based; conditions: S. pneumoniae ATCC 49619
Source text: as §1

S. pyogenes = test: as above; type: cell-based; conditions: S. pyogenes ATCC 49399
Source text: as §1

E. coli ATCC 25922 = test: Broth microdilution MIC (time-kill study); type: cell-based, Escherichia coli
[2] = system: Veillonella spp. clinical isolates; test: MIC distribution against clinical isolates; type: cell-based; conditions: 30 Veillonella spp. isolates
Source text: (n=19 V. parvula, n=9 Veillonella spp., n=1 Veillonella dispr., n=1 V. atypica) clinical isolates (μg/mL).
As used herein, “minimum inhibitory concentration” or “MIC” refers to the lowest concentration of an antimicrobial agent, for example, an antimicrobial agent as described herein, required to inhibit the growth of an organism. […] “MIC90” represents the MIC value at which ≥90% of the strains within a test population are inhibited; the 90th percentile.
Many susceptibility testing methods are known in the art and can be used as described herein (see, e.g., Jorgensen and Ferraro (2009) Clinical Infectious Diseases 49:1749-1755; and Maurer et al. (2017) Infectious Disease Reports 9:6839; the entire contents of each of the foregoing are incorporated herein by reference). For example, antimicrobial susceptibility can be determined using conventional culture based methods such as the broth or agar dilution test. In these dilution tests, the bacterial isolate of interest is inoculated onto different media that include serial dilutions of an antimicrobial agent, and incubated under appropriate conditions (e.g., overnight at 37° C.) to allow for growth to occur. Following the incubation period, the media is examined to determine bacterial growth. The lowest concentration of antibiotic that prevents growth represents the minimal inhibitory concentration (MIC). Broth dilution tests can be miniaturized and mechanized allowing for reproducibility and high throughput.

S. pneumoniae ATCC 49619 = test: Broth microdilution MIC (time-kill study); type: cell-based, Streptococcus pneumoniae
Bacteroides fragilis = test: Agar dilution MIC, 30 clinical isolates; type: cell-based
S. agalactiae ATCC 13813 = test: Time-kill assay; type: cell-based, Streptococcus agalactiae; conditions: 2×, 4×, 8× MIC; 2, 6, 24 hr
B. ovatus MMX 3503 = test: Broth microdilution MIC (time-kill study); type: cell-based, Bacteroides ovatus
[3] = system: Bacteroides fragilis clinical isolates; test: MIC distribution against clinical isolates; type: cell-based; conditions: 30 B. fragilis isolates
Method in brief: (§2)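 MIC is the lowest agent concentration preventing growth, determined by broth or agar dilution with serial compound dilutions and incubation under appropriate conditions (e.g., overnight at 37° C.). MIC90 is the concentration inhibiting ≥90% of isolates in the test population.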

[4] = system: Streptococcus agalactiae clinical isolates; test: MIC distribution against clinical isolates; type: cell-based; conditions: 20 S. agalactiae isolates
Method in brief: as §2

E. coli MMX 1312 = test: Broth microdilution MIC (time-kill study); type: cell-based, Escherichia coli
[5] = 29 Bacteroides non-fragilis clinical isolates
[6] = E. coli ATCC 25922, selection 4X MIC, 0.06 μg/mL
[7] = E. coli ATCC 35218, selection 4X MIC, 0.06 μg/mL
[8] = E. coli MMX 1312, selection 4X MIC, 0.06 μg/mL, TNTC = too numerous to count
[9] = 30 Bacteroides fragilis clinical isolates

## C[C@@H](O)[C@H]1C(=O)N2C(C(=O)O)=C(S[C@@H]3CN[C@H](C(=O)N(C)C)C3)[C@H](C)[C@H]12 [meropenem]
Bacteroides non fragilis
  isolates with intermediate resistance: Three
Bacteroides non fragilis; [5]
  % I: 3%
  % S: 97%
  MIC50: 0.5 µg/mL (≈ 1.3 µM)
  MIC90: 2 µg/mL (≈ 5.22 µM)
Bacteroides non fragilis; Bacteroides, read-out: MIC50
  MIC50: 0.5 µg/mL (≈ 1.3 µM)
Bacteroides non fragilis; Bacteroides, read-out: MIC90
  MIC90: 2 µg/mL (≈ 5.22 µM)
Bacteroides non fragilis; modal MIC, 29 Bacteroides non-fragilis clinical isolates
  Mode: 0.5 µg/mL
[1]; Bacteroides fragilis, ATCC25285, read-out: Agar MIC
  MIC: 0.12 µg/mL (≈ 0.313 µM)
[1]; Bacteroides ovatus, ATCC25285, read-out: Agar MIC
  MIC: 0.12 µg/mL (≈ 0.313 µM)
[1]; Phocaeicola vulgatus, ATCC 25285 / ATCC 8482, read-out: Agar MIC
  MIC: 0.12 µg/mL (≈ 0.313 µM)
[1]; over evaluated Bacteroides spp., read-out: MIC values (agar dilution)
  MIC: 0.008 to 0.12 µg/mL (≈ 0.0209 to 0.313 µM)
S. agalactiae
  MPC: 0.12 µg/mL
Escherichia coli
  Average Count: 0 CFU
  Count 1: 0 CFU
  Count 2: 0 CFU
Escherichia coli; E. coli ATCC 25922
  MPC: 0.06 µg/mL
Escherichia coli; [6]
  Average Count: 0 CFU
  Count 1: 0 CFU
  Count 2: 0 CFU
  Spontaneous Mutation Frequency: ≤7.41 × 10^−9
Escherichia coli; E. coli ATCC 35218
  MPC: 0.06 µg/mL
Escherichia coli; [7]
  Average Count: 0 CFU
  Count 1: 0 CFU
  Count 2: 0 CFU
  Spontaneous Mutation Frequency: ≤5.13 × 10^−9
Escherichia coli; [8]
  Average Count: TNTC
  Count 1: TNTC
  Count 2: TNTC
B. vulgatus
  MPC: 0.5 µg/mL
B. vulgatus; selection 4X MIC, 0.5 μg/mL
  Average Count: 0 CFU
  Count 1: 0 CFU
  Count 2: 0 CFU
  Spontaneous Mutation Frequency: ≤1.73 × 10^−10
B. vulgatus; selection 8X MIC, 1 μg/mL
  Average Count: 0 CFU
  Count 1: 0 CFU
  Count 2: 0 CFU
  Spontaneous Mutation Frequency: ≤1.73 × 10^−10
S. pneumonia
  MPC: 0.25 µg/mL
S. pneumonia; selection 8X MIC, 0.5 μg/mL
  Average Count: 0 CFU
  Count 1: 0 CFU
  Count 2: 0 CFU
  Spontaneous Mutation Frequency: ≤9.52 × 10^−10
S. pyogenes
  MPC: 0.03 µg/mL
S. pyogenes; selection 4X MIC, 0.03 μg/mL
  Average Count: 0 CFU
  Count 1: 0 CFU
  Count 2: 0 CFU
  Spontaneous Mutation Frequency: ≤1.81 × 10^−10
S. pyogenes; selection 8X MIC, 0.06 μg/mL
  Average Count: 0 CFU
  Count 1: 0 CFU
  Count 2: 0 CFU
  Spontaneous Mutation Frequency: ≤1.81 × 10^−10
E. coli ATCC 25922; E. coli ATCC 25922
  MIC: 0.015 µg/mL (≈ 0.0391 µM)
E. coli ATCC 25922; Escherichia coli, ATCC25922, broth microdilution, read-out: MIC
  MIC: 0.015 µg/mL (≈ 0.0391 µM)
[2]; MIC 0.5 μg/mL
  Cumulative percentage of isolates inhibited at MIC: 43.3%
  Number of test isolates at MIC: 2
[2]; MIC 1 μg/mL
  Cumulative percentage of isolates inhibited at MIC: 53.3%
  Number of test isolates at MIC: 3
[2]; MIC 2 μg/mL
  Cumulative percentage of isolates inhibited at MIC: 70.0%
  Number of test isolates at MIC: 5
[2]; MIC 4 μg/mL
  Cumulative percentage of isolates inhibited at MIC: 76.7%
  Number of test isolates at MIC: 2
[2]; MIC 8 μg/mL
  Cumulative percentage of isolates inhibited at MIC: 100.0%
  Number of test isolates at MIC: 7
S. pneumoniae ATCC 49619; S. pneumoniae ATCC 49619
  MIC: 0.06 µg/mL (≈ 0.156 µM)
S. pneumoniae ATCC 49619; Streptococcus pneumoniae, ATCC49619, broth microdilution, read-out: MIC
  MIC: 0.06 µg/mL (≈ 0.156 µM)
Bacteroides fragilis
  isolates with intermediate resistance: Twenty
  relative activity among drugs tested: meropenem and rifaximin had similar activity
Bacteroides fragilis; [9]
  % I: 20%
  % S: 80%
  MIC50: 0.25 µg/mL (≈ 0.652 µM)
  MIC90: >8 µg/mL
Bacteroides fragilis; Bacteroides fragilis, read-out: MIC50
  MIC50: 0.25 µg/mL (≈ 0.652 µM)
Bacteroides fragilis; Bacteroides fragilis, read-out: MIC90
  MIC90: > 8 µg/mL
Bacteroides fragilis; modal MIC, 30 Bacteroides fragilis clinical isolates
  Mode: 0.25 µg/mL
S. agalactiae ATCC 13813
  time-kill kinetics outcome (bactericidal = ≥3 log reduction in CFU per mL): bactericidal effect at 24 hr at 8×MIC
B. ovatus MMX 3503; B. ovatus MMX 3504 (so in the source)
  MIC: 0.12 µg/mL (≈ 0.313 µM)
B. ovatus MMX 3503; Bacteroides ovatus, MMX3503, broth microdilution, read-out: MIC
  MIC: 0.12 µg/mL (≈ 0.313 µM)
[3]; MIC 1 μg/mL
  Cumulative percentage of isolates inhibited at MIC: 80.0%
  Number of test isolates at MIC: 4
[3]; MIC 8 μg/mL
  Cumulative percentage of isolates inhibited at MIC: 83.3%
  Number of test isolates at MIC: 1
[3]; MIC >8 μg/mL
  Cumulative percentage of isolates inhibited at MIC: 100.0%
  Number of test isolates at MIC: 5
[4]; MIC 0.015 μg/mL
  Cumulative percentage of isolates inhibited at MIC: 20.0%
  Number of test isolates at MIC: 4
[4]; MIC 0.03 μg/mL
  Cumulative percentage of isolates inhibited at MIC: 95.0%
  Number of test isolates at MIC: 15
[4]; MIC 0.06 μg/mL
  Cumulative percentage of isolates inhibited at MIC: 100.0%
  Number of test isolates at MIC: 1
E. coli MMX 1312; E. coli MMX 1312
  MIC: 0.008 µg/mL (≈ 0.0209 µM)
E. coli MMX 1312; Escherichia coli, MMX1312, broth microdilution, read-out: MIC
  MIC: 0.008 µg/mL (≈ 0.0209 µM)
